Results published in ChEMBL document CHEMBL1201862, “PubChem BioAssay data set” (2004).
The source made the active and inactive calls.

Assays:
[1] = reduction of Shn3 3'UTR-driven luciferase in osteoblasts – cell-based, Clone20 osteoblasts, firefly luciferase, cherry-picked, dose response (AID 624132); assay type: functional;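 also: firefly luciferase luminescence from reporter carrying the Shn3 3'UTR in osteoblasts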
H4 = assay: Luminescence Cell-Based Dose Response HTS to Identify Activators of 5'UTR Stem-Loop Driven Prion Protein mRNA Translation in H4 Neuroglioblastoma Cells. [Related pubchem assays: 1829 (Project Summary), 1814 (Primary HTS)]; assay type: functional; settings: Homo sapiens
[2] = loss of viability in HepG2 cells – cell-based, CellTiter-Glo, cherry-picked, cytotoxicity control for Shn3 inhibitor project, dose response (AID 624134); assay type: functional
Interleukin-8 [3] = target: T1, Interleukin-8 (Homo sapiens, UniProt P10145); assay: Dose Response confirmation of uHTS small molecule hits for cystic fibrosis induced NFkb Inhibitors in a TNFa-induced IL8 counterscreen.; assay type: functional; settings: read-out: IC50_Mean
T1 sequence (P10145 whole entry): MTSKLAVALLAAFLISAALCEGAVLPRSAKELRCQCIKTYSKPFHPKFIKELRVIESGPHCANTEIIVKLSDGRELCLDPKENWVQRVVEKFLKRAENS

INS1 = assay: INS-1E survival protection against cytokine death – cell-based, luminescence, retest, dose response (AID 449756); assay type: functional; settings: Rattus norvegicus;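 also: cell death triggered by IL-1 beta plus TNF-alpha plus IFN-gamma mixture; protective hits raise ATP signal compared with cytokine alone wells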
Interleukin-8 [4] = target: T1, Interleukin-8; assay: Dose Response confirmation of uHTS small molecule hits for cystic fibrosis induced NFkb Inhibitors in a PAF-induced IL8 counterscreen.; assay type: functional; settings: read-out: IC50_Mean
Vero [5] = assay: cells; assay type: functional; settings: Chlorocebus sabaeus
[6] = non-specific 3'UTR reporter inhibition in Clone20-Shn3RL – cell-based, Renilla luciferase, cherry-picked, counter-screen for Shn3 inhibitor project, dose response (AID 624133); assay type: functional
[7] = Luminescence Cell-Based Dose Response HTS to Identify Activators of Luciferase Translation or Activity in H4 […] Cells. [Related pubchem assays: 1829 (Project Summary), 1814 (Primary HTS)]; assay type: functional
[8] = Luminescence Cell-Based Dose Confirmation HTS to Identify Activators of 5'UTR Stem-Loop Driven Alpha-Synuclein mRNA Translation in H4 Neuroglioblastoma Cells. [Related pubchem assays: 1829 (Project Summary), 1814 (Primary HTS)]; assay type: functional
Vero [9] = assay: cells; assay type: functional, cell-based; settings: Chlorocebus sabaeus
[10] = cAMP pathway inhibition in counterscreen cell line – TR-FRET cAMP detection, counter-screen for MC4R biased antagonist project, dose response (AID 602305); assay type: functional, cell-based;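 also: U2OS cells stimulated with forskolin near its EC80 as the cAMP inducer; potency is for inhibition of forskolin-stimulated cAMP signaling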
Melanocortin receptor 4 = Melanocortin receptor 4 (Homo sapiens, UniProt P32245); assay: inhibitors of MC4R cAMP signaling – cell-based, TR-FRET, biased antagonists, dose response (AID 602298); assay type: functional;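 also: antagonist potency against agonist-stimulated cAMP production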
Chain of Melanocortin receptor 4 (P32245 whole entry): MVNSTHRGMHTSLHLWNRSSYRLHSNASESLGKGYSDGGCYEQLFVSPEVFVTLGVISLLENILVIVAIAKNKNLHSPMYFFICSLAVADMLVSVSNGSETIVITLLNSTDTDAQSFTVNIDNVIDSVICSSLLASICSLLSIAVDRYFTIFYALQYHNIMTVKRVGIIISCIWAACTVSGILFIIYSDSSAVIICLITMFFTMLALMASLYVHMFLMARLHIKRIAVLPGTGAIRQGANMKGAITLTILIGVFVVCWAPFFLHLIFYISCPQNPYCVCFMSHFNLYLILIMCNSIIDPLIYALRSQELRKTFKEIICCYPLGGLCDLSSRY

[11] = target: Delta-type opioid receptor (Homo sapiens, UniProt P41143); assay: Counterscreen for agonists of heterodimerization of the mu 1 (OPRM1) and delta 1 (OPRD1) opioid receptors: Luminescence-based cell-based high throughput dose response assay to identify agonists of OPRD1 homodimerization. [Related pubchem assays (depositor defined):AID504326, AID504355, AID504692, AID504904, AID504905]; assay type: functional
Chain of Delta-type opioid receptor (P41143 whole entry): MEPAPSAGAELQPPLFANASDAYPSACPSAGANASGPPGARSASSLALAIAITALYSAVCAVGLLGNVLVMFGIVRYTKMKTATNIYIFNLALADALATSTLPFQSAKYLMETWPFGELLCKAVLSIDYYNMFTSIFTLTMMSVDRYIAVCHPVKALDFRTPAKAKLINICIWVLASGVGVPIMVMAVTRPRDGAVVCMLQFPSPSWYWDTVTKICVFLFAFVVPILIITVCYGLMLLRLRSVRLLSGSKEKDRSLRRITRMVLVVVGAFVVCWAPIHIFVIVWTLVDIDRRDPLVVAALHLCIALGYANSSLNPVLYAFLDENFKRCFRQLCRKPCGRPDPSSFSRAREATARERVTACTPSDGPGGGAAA

Mu-type opioid receptor = Mu-type opioid receptor (Homo sapiens, UniProt P35372); assay: Counterscreen for agonists of heterodimerization of the mu 1 (OPRM1) and delta 1 (OPRD1) opioid receptors: Luminescence-based cell-based high throughput dose response assay to identify agonists of OPRM1 homodimerization.; assay type: functional;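 also: U2OS cells expressing OPRM1 and beta-arrestin as split beta-galactosidase partners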
Chain of Mu-type opioid receptor (P35372 whole entry): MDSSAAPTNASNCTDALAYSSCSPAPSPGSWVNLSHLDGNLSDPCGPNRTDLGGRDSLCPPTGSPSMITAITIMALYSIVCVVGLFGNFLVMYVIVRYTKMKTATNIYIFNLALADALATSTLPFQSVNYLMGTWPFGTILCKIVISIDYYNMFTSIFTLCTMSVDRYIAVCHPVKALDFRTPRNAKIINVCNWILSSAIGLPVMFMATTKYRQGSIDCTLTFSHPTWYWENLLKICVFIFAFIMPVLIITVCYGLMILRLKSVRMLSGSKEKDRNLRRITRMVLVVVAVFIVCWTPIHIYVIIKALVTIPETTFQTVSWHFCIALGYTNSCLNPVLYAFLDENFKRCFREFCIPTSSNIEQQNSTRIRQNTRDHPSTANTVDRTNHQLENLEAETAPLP

[12] = target: 5-hydroxytryptamine receptor 5A (Homo sapiens, UniProt P47898); assay: Counterscreen for agonists of OPRM1-OPRD1 heterodimerization: luminescence-based cell-based high throughput dose response assay to identify agonists of 5-hydroxytryptamine (serotonin) 5A receptor (HTR5A). [Related pubchem assays (depositor defined):AID504326, AID504355, AID504692, AID504904, AID504905]; assay type: functional
Chain of 5-hydroxytryptamine receptor 5A (P47898 whole entry): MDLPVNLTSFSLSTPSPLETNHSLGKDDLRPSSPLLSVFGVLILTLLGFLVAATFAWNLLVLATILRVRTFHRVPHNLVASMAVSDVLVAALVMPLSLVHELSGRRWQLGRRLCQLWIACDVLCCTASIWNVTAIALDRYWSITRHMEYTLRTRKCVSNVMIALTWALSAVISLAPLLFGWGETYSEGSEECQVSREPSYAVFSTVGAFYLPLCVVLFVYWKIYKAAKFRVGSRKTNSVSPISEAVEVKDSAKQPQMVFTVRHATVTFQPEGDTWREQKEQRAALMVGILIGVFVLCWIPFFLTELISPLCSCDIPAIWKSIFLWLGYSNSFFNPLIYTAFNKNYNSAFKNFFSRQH

[13] = viability loss in HeLa cells – cytotoxicity control for MgcRacGAP inhibitor project, dose response (AID 624300); assay type: functional
Protein RecA = target: T2, Protein RecA (Mycobacterium tuberculosis, UniProt P9WHJ3); assay: Fluorescence Cell-Free Homogeneous Dose Retest to Identify Inhibitors of RecA-Intein Splicing Activity. [Related pubchem assays (depositor defined):AID2097, AID2223, AID489010, AID492950]; assay type: functional
T2 sequence (P9WHJ3 whole entry): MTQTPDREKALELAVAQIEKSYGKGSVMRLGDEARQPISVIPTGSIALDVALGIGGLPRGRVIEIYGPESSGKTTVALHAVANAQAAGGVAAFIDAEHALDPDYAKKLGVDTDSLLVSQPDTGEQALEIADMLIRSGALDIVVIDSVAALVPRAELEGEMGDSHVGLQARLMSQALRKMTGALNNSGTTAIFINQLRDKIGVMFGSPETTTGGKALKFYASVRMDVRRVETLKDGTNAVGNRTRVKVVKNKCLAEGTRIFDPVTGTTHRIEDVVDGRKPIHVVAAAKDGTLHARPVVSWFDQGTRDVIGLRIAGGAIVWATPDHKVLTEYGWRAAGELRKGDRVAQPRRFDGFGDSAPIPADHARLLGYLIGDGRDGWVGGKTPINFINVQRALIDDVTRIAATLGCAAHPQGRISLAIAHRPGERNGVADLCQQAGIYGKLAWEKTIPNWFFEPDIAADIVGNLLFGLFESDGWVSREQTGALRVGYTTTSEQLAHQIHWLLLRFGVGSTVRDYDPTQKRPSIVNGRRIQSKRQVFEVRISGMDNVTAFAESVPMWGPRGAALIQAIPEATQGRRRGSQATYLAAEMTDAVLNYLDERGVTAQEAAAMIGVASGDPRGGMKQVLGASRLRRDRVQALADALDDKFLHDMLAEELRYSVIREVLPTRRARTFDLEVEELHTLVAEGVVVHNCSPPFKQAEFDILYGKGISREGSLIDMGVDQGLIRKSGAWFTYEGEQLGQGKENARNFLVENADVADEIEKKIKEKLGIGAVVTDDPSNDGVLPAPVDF

[14] = target: T3, Rac GTPase-activating protein 1 (Homo sapiens, UniProt Q9H0H5); assay: blockers of MgcRacGAP-driven Rac1 GTP hydrolysis – biochemical, ADP Hunter fluorescence, primary and confirmatory, confirmation (AID 624330); assay type: functional
T3 sequence (Q9H0H5 whole entry): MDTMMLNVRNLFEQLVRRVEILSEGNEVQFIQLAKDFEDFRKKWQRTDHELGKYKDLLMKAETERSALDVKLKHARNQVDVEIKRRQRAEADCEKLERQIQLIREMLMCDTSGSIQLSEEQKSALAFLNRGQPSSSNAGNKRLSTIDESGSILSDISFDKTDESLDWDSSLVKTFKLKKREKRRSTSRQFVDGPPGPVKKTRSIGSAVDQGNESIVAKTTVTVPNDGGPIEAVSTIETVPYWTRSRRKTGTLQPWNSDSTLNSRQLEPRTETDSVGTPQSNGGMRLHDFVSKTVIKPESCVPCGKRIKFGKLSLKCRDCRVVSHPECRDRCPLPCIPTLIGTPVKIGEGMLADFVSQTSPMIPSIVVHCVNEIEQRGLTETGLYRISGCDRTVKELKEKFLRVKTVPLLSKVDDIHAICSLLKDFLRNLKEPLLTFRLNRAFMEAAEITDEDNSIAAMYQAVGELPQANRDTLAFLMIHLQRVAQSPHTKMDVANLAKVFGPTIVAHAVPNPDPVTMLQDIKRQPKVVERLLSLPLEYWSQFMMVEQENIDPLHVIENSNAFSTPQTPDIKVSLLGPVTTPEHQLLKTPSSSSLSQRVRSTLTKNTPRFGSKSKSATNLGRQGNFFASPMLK

[15] = target: T4, Replicative DNA helicase DnaB (Mycobacterium tuberculosis, UniProt P9WMR3); assay: DnaB intein splicing inhibitors, dose response, biochemical, cell-free fluorescence (AID 449749); assay type: functional
T4 sequence (P9WMR3 whole entry): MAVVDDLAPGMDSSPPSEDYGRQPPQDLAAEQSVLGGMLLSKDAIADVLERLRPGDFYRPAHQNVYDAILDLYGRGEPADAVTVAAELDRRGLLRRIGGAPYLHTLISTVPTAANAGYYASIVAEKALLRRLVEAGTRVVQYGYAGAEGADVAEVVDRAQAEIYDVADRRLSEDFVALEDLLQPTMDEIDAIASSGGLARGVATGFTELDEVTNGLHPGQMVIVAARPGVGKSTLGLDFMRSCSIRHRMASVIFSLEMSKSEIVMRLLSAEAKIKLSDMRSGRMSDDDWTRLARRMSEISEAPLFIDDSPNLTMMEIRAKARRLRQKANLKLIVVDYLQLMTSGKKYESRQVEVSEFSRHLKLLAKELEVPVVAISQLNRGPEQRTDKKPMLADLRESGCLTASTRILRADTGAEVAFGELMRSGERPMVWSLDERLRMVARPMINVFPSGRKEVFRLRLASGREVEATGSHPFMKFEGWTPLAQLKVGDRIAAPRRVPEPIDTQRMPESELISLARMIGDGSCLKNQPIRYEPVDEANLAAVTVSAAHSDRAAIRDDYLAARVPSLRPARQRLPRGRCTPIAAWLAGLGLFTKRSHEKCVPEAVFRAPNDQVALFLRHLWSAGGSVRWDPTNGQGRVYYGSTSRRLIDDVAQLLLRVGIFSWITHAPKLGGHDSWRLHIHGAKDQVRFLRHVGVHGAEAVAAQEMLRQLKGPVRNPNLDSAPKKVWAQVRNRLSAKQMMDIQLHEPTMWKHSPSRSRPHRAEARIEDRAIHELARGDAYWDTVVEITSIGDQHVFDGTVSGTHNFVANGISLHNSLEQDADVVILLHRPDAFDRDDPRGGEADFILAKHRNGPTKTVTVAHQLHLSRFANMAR

[16] = target: Dual specificity tyrosine-phosphorylation-regulated kinase 1A (Rattus norvegicus, UniProt Q63470); assay type: biochemical, Homo sapiens
BJ [17] = assay: cells; assay type: functional, cell-based; settings: Homo sapiens
[18] = DRD fibroblast viability loss – cell-based, non-viral oncogenic, luminescence, dose response (AID 1934); assay type: functional; settings: Homo sapiens
BJ [19] = assay: BJ-TERT fibroblast viability loss – cell-based, RAS-independent, luminescence, dose response (AID 1933); assay type: functional; settings: Homo sapiens
BJ [20] = assay: BJ-TERT-LT-ST fibroblast viability loss – cell-based, RAS-independent, luminescence, dose response (AID 1935); assay type: functional; settings: Homo sapiens;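 also: BJ fibroblasts immortalized with TERT plus LT and ST oncogenes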

With `C=CCSc1nc2ccccc2n1C(=O)/C=C/c1ccc(OC)c(OC)c1` the AC50 [1] was 1.31 µM (active), the EC50 (H4) was > 120 µM (not active) and the AC50 [2] was 49.4 µM (active). The IC50 (Interleukin-8 [3]) was > 79 µM (inactive), the AC50 (INS1) was 8.85 µM (active) and the IC50 (Interleukin-8 [4]) was 0.685 µM (active). The CC50 (Vero [5]) was 9.91 µM (active), the AC50 [6] was 12.5 µM (active) and the EC50 [7] was > 120 µM (not active). The EC50 [8] was > 120 µM (not active) and the IC50 (Vero [9]) was > 25 µM (active).
In the case of `COc1cc([N+](=O)[O-])ccc1NC(=S)NC(=O)CC(C)(C)C`, the IC50 [10] is reported as > 64.6 µM (inactive) and the IC50 (Melanocortin receptor 4) is reported as > 64.6 µM (inactive).
For `CN(C)CCCN(C(=O)c1ccc(S(=O)(=O)N(C)Cc2ccccc2)cc1)c1nc2c(F)cccc2s1`, the EC50 [11] was > 30.8 µM (inactive), the EC50 (Mu-type opioid receptor) was 26.2 µM (inactive) and the EC50 [12] was > 92.5 µM (inactive).
With `CCOC(=O)c1c(NC(=O)C2c3ccccc3Oc3ccccc32)sc(C(N)=O)c1C` the IC50 [10] was 32.5 µM (inactive) and the IC50 (Melanocortin receptor 4) was > 21.5 µM (inactive).
For `CCN(CC)S(=O)(=O)c1ccc(N2CCOCC2)c(NC(=O)c2ccccc2F)c1`, the IC50 [10] was > 64.6 µM (inactive) and the IC50 (Melanocortin receptor 4) was > 64.6 µM (inactive).
In the case of `Oc1ccc(NC(=S)N=Nc2c(O)[nH]c3ccc(Br)cc23)cc1`, the CC50 [13] is reported as 61.5 µM (active), the EC50 (Protein RecA) is reported as 13.7 µM (active) and the IC50 [14] is reported as 152 µM (active). For the same compound, the AC50 [15] was 12.1 µM (active) and the AC50 [16] was 1.2 µM (active).
With `CCc1ccc2nc(N(CCCN(C)C)C(=O)c3ccc(S(=O)(=O)N(C)C4CCCCC4)cc3)sc2c1` the EC50 [11] was > 92.5 µM (inactive), the EC50 (BJ [17]) was 13.4 µM (active) and the EC50 (Mu-type opioid receptor) was > 92.5 µM (inactive). For the same compound, the EC50 [18] was 7.91 µM (active), the EC50 (BJ [19]) was 6.21 µM (inconclusive) and the EC50 [12] was > 92.5 µM (inactive). For the same compound, the EC50 (BJ [20]) was 7.58 µM (active).
